The record followed here is ChEMBL document CHEMBL1124178, “Nucleosides of 1,4-thiazin-3-one and derivatives as tetrahedral intermediate analogues of enzymes in pyrimidine nucleoside metabolism” (J Med Chem, 1988).

Common to all, as to type: functional
Experiment [1] concerns L1210. Briefly: In vitro Inhibitory activity against the growth of L1210 murine lymphocytic leukemia. Conditions: Mus musculus, read-out: ID50 (the source's name).
For experiment [2], the species on record is Homo sapiens. The experiment is described as follows: In vitro Inhibitory activity against the growth of WIL-2 human B lymphoblastic leukemia.
For experiment [3], the system named is CCRF-CEM. The experiment is described as follows: In vitro inhibitory activity against the growth of CCRF-CEM human T lymphoblastic leukemia. Conditions: read-out: ID50 (the source's name).

Turning to `CC1=CSCC(=O)N1`, the IC50 worked out at 3 µM in experiment [1] and 35.5 µM in experiment [3]. Also, in experiment [2], the ID50 was determined as 41.7 µM.
